Assay results from patent publication US11450805B2, “Compound, semiconductor material, and methods for manufacturing coating and semiconductor using the same” (Merck Patent GmbH, priority 2016, dated 2022).

Experiment: Evaluation of solubility of solute in solvents (visual inspection)
Assay type: physicochemical
Details: stirring at room temperature for 60 minutes; for Solubility, solvent PGME:EL = 7:3: PGME:EL = 7:3 volume ratio; for Solubility, solvent PGME:PGMEA = 7:3: PGME:PGMEA = 7:3 volume ratio
Description: Comparative compound 1 was added as a solute to each of the various solvents listed in Table 1 in an amount of 10% by mass, and mixed with the solvent by stirring at room temperature for 60 minutes. When 10% by mass of the solute was not fully dissolved in the solvent, the amount of the solute added was changed to 1% by mass, and 1% by mass of the solute was mixed with the solvent in the same manner as above.
The state of dissolution of the solute was visually inspected and evaluated as follows.
A: Even when the amount of the solute mixed with the solvent was 10% by mass, the solute was fully dissolved.
B: When the amount of the solute mixed with the solvent was 10% by mass, the solute was not fully dissolved and some of it remained undissolved, while when the amount of the solute mixed with the solvent was 1% by mass, the solute was fully dissolved.
C: Even when the amount of the solute mixed with the solvent was 1% by mass, the solute was not fully dissolved and some of it remained undissolved.
Experiments were conducted in the same manner as above, except for changing the solute from comparative compound 1 to other compounds listed in Table 1.

Row | SMILES | Solubility, solvent PGME:EL = 7:3 | Solubility, solvent PGME:PGMEA = 7:3 | Solubility, solvent PGME
1 | c1ccc(-c2c(-c3ccccc3)c(-c3ccccc3)c(-c3ccc(-c4c(-c5ccccc5)c(-c5ccccc5)c(-c5ccccc5)c(-c5ccccc5)c4-c4ccccc4)cc3)c(-c3ccccc3)c2-c2ccccc2)cc1 [Comparative compound 1, reference compound] | C (Even when the amount of the solute mixed with the solvent was 1% by mass, the solute was not fully dissolved and some of it remained undissolved.) | C (Even when the amount of the solute mixed with the solvent was 1% by mass, the solute was not fully dissolved and some of it remained undissolved.) | C (Even when the amount of the solute mixed with the solvent was 1% by mass, the solute was not fully dissolved and some of it remained undissolved.)
2 | Oc1ccc(-c2c(-c3ccccc3)c(-c3ccccc3)c(-c3ccc(-c4c(-c5ccccc5)c(-c5ccccc5)c(-c5ccc(O)cc5)c(-c5ccc(O)cc5)c4-c4ccccc4)cc3)c(-c3ccccc3)c2-c2ccc(O)cc2)cc1 [G1] | A (Even when the amount of the solute mixed with the solvent was 10% by mass, the solute was fully dissolved.) | A (Even when the amount of the solute mixed with the solvent was 10% by mass, the solute was fully dissolved.) | A (Even when the amount of the solute mixed with the solvent was 10% by mass, the solute was fully dissolved.)
3 | Oc1ccc(-c2c(-c3ccccc3)c(-c3ccccc3)c(-c3c4ccccc4c(-c4c(-c5ccccc5)c(-c5ccccc5)c(-c5ccc(O)cc5)c(-c5ccc(O)cc5)c4-c4ccccc4)c4ccccc34)c(-c3ccccc3)c2-c2ccc(O)cc2)cc1 [G2] | A (Even when the amount of the solute mixed with the solvent was 10% by mass, the solute was fully dissolved.) | A (Even when the amount of the solute mixed with the solvent was 10% by mass, the solute was fully dissolved.) | A (Even when the amount of the solute mixed with the solvent was 10% by mass, the solute was fully dissolved.)
4 | Oc1ccc(-c2c(-c3ccccc3)cc(-c3ccc(-c4cc(-c5ccccc5)c(-c5ccc(O)cc5)c(-c5ccc(O)cc5)c4-c4ccccc4)cc3)c(-c3ccccc3)c2-c2ccc(O)cc2)cc1 [G3] | A (Even when the amount of the solute mixed with the solvent was 10% by mass, the solute was fully dissolved.) | A (Even when the amount of the solute mixed with the solvent was 10% by mass, the solute was fully dissolved.) | A (Even when the amount of the solute mixed with the solvent was 10% by mass, the solute was fully dissolved.)
5 | Oc1ccc(-c2c(-c3ccc(O)cc3)c(-c3ccc(O)cc3)c(-c3ccc(O)cc3)c(-c3ccc(O)cc3)c2-c2ccc(O)cc2)cc1 [G5] | A (Even when the amount of the solute mixed with the solvent was 10% by mass, the solute was fully dissolved.) | A (Even when the amount of the solute mixed with the solvent was 10% by mass, the solute was fully dissolved.) | A (Even when the amount of the solute mixed with the solvent was 10% by mass, the solute was fully dissolved.)
6 | Oc1ccc(-c2c(-c3ccccc3)c(-c3ccccc3)c(-c3ccc(-c4ccc(-c5c(-c6ccccc6)c(-c6ccccc6)c(-c6ccc(O)cc6)c(-c6ccc(O)cc6)c5-c5ccccc5)cc4)cc3)c(-c3ccccc3)c2-c2ccc(O)cc2)cc1 [G6] | A (Even when the amount of the solute mixed with the solvent was 10% by mass, the solute was fully dissolved.) | A (Even when the amount of the solute mixed with the solvent was 10% by mass, the solute was fully dissolved.) | A (Even when the amount of the solute mixed with the solvent was 10% by mass, the solute was fully dissolved.)
7 | Oc1ccc(-c2c(-c3ccccc3)c(-c3ccccc3)c(-c3c(-c4ccccc4)c(-c4c(-c5ccccc5)c(-c5ccccc5)c(-c5ccc(O)cc5)c(-c5ccc(O)cc5)c4-c4ccccc4)c(-c4ccccc4)c(-c4c(-c5ccccc5)c(-c5ccccc5)c(-c5ccc(O)cc5)c(-c5ccc(O)cc5)c4-c4ccccc4)c3-c3ccccc3)c(-c3ccccc3)c2-c2ccc(O)cc2)cc1 [G7] | B (When the amount of the solute mixed with the solvent was 10% by mass, the solute was not fully dissolved and some of it remained undissolved, while when the amount of the solute mixed with the solvent was 1% by mass, the solute was fully dissolved.) | B (When the amount of the solute mixed with the solvent was 10% by mass, the solute was not fully dissolved and some of it remained undissolved, while when the amount of the solute mixed with the solvent was 1% by mass, the solute was fully dissolved.) | A (Even when the amount of the solute mixed with the solvent was 10% by mass, the solute was fully dissolved.)
8 | Nc1ccc(-c2c(-c3ccccc3)c(-c3ccccc3)c(-c3ccccc3)c(-c3ccccc3)c2-c2ccc(N)cc2)cc1 [G8] | A (Even when the amount of the solute mixed with the solvent was 10% by mass, the solute was fully dissolved.) | A (Even when the amount of the solute mixed with the solvent was 10% by mass, the solute was fully dissolved.) | A (Even when the amount of the solute mixed with the solvent was 10% by mass, the solute was fully dissolved.)
9 | COc1ccc(-c2c(-c3ccccc3)c(-c3ccccc3)c(-c3ccc(-c4c(-c5ccccc5)c(-c5ccccc5)c(-c5ccc(OC)cc5)c(-c5ccc(OC)cc5)c4-c4ccccc4)cc3)c(-c3ccccc3)c2-c2ccc(OC)cc2)cc1 [Intermediate G0, reference compound] | C (Even when the amount of the solute mixed with the solvent was 1% by mass, the solute was not fully dissolved and some of it remained undissolved.) | C (Even when the amount of the solute mixed with the solvent was 1% by mass, the solute was not fully dissolved and some of it remained undissolved.) | C (Even when the amount of the solute mixed with the solvent was 1% by mass, the solute was not fully dissolved and some of it remained undissolved.)
